# From patent US20230129788A1, “GLP-1/GLP-2 DUAL AGONISTS” (Zealand Pharma A/S, priority 2020, published 2023)
# Starred links: 1 amine or outer side, 2 acyl side, 3 side chain; linkers in the order of their positions; H or OH if unused. Non-standard residues stand in square brackets, D forms with d. Groups on a side chain read outwards from the residue. *: point of attachment. C18 diacid = O=C(O)CCCCCCCCCCCCCCCCC(=O)*; γGlu = O=C(O)[C@H](CCC(=O)[*:2])N[*:1]; Aib = CC(C)(N)C(=O)O
# Tests used:
# [1] = tested on: Total Parental Nutrition (TPN) Piglet Model; experiment: Histology of small bowel, villous/crypt (V/C) ratio, in total parenteral nutrition (TPN) piglet model; format: in vivo, piglets
# Procedure: (§1) One-week-old piglets were placed in heated (25-30° C.) cages. Jugular and duodenal catheters were surgically implanted as described in paragraph 2 (method and material) in Jain 2015. Subsequently, preconditioned jackets and ambulatory pumps for TPN (total parenteral nutrition) delivery were fitted. Animals were started on their randomly assigned groups to receive enteral nutrition (EN; n=11), intravenous total parenteral nutrition plus vehicle (TPN; n=8) or TPN plus compound 18 (Cpd 18; n=13). Cpd 18 and vehicle were administered as daily subcutaneous injections at a dose of either 0.008 mg/kg (n=2), 0.033 mg/kg (n=2), 0.066 mg/kg (n=2) or 0.133 mg/kg (n=7).
# (§2) Enteral animals (EN) received a swine milk replacement formula (formula LitterLife as described in Jain 2015, paragraph 2.6). All other animals received total parenteral nutrition (Clinimix E from Baxter as described in Jain 2015, paragraph 2.6).
# Segments of fresh tissue (2-3 cm) from the small intestine were fixed in 4% buffered formalin for 24 hours and then stored in 70% ethanol at room temperature for 24 hours. […] Using the small-bowel H&E slides, the mean villous height and crypt depth were quantified in vertically well-oriented villous-crypt columns with the slide reviewer blinded to the treatment to compute a villous/crypt (V/C) ratio for animals in each group.
# [2] = tested on: Total Parental Nutrition (TPN) Piglet Model; experiment: Small intestine mass (weight per centimeter) in total parenteral nutrition (TPN) piglet model; format: in vivo; settings: piglets on TPN
# Procedure: as §1, §2
# Post-euthanasia (see Jain 2015, paragraph 2.7), the abdomen was opened, and the small intestine was removed. Small segments of the small bowel were sliced and weighed (see Jain 2015, paragraph 2.78). Tissue was then cut into smaller pieces, preserved for histology and snap-frozen in liquid nitrogen to be stored at −80° C. for analysis.
substance,measurement,setting,value
H-H[Aib]EGSFTSELATILDK([γGlu-C18 diacid])QAARDFIAWLIQHKITD-OH [Cpd 18],"histological section of the small bowel, villi and crypts","[1]; piglet on TPN, 0.133 mg/kg for 14 days, FIG. 6 compared to FIG. 4",villi and crypts are comparable to the animal receiving enteral nutrition
same,V/C ratio of the small bowel,"[1]; piglets on TPN, 0.133 mg/kg daily s.c., sacrifice on day 14, FIG. 3",completely preserved the V/C ratio to the same ratio seen in the animals on EN
same,mass of the proximal intestine (weight per centimeter),"[2]; daily subcutaneous injections 0.008, 0.033, 0.066 or 0.133 mg/kg, sacrifice on day 14, FIG. 1",preserved the mass in a dose-dependent fashion
same,mass of the distal intestine (weight per centimeter),"[2]; daily subcutaneous injections 0.008, 0.033, 0.066 or 0.133 mg/kg, sacrifice on day 14, FIG. 2",preserved the mass in a dose-dependent fashion
same,weight of the proximal intestine at the highest dose compared to animals on EN,"[2]; highest dose (0.133 mg/kg daily s.c.), sacrifice on day 14, FIG. 1",approximately the same as in the animals on EN
same,"weight of the distal intestine at the highest dose, greater than that in the animals on TPN","[2]; highest dose (0.133 mg/kg daily s.c.), sacrifice on day 14, FIG. 2",approximately 50%
